Assay results as given in EP0339176A1, “Suppository containing a non-steroidal anti-inflammatory medicament” (AMERICAN CYANAMID COMPANY, priority 1988, dated 1989).

What was measured:
[1] = Solubility of BPAA salts in water relative to the free acid; conditions: salt versus free acid
[2] = Clinical bioavailability study of Fenbufen suppositories; type: in vivo; conditions: rectal
Experimental: Rectal administration of non-steroidal anti-inflammatory drugs can be clinically advantageous in some circumstances, in that it can prolong the effect of the drug. For example, when certain non-steroidal drugs are given rectally to a patient immediately prior to retiring for the night, sufficient blood levels of the drug are still available some 6-7 hours later to prevent morning stiffness. However, in the case of Fenbufen, the high level required for the nocturnal dose (450-600 mg) makes it difficult to deliver this drug successfully from the rectum. […] Accordingly, Fenbufen-containing suppository formulations for rectal administration have not been available, which is a disadvantage when Fenbufen would otherwise be the drug of choice for the patient.

| Structure (SMILES) | increase of the solubility of (1,1′-biphenyl)-4-acetic acid in water [1] | bioavailability of the active ingredient from suppositories [2] |
| --- | --- | --- |
| O=C(O)Cc1ccc(-c2ccccc2)cc1 [sodium] | 8-9 fold | – |
| O=C(O)CCC(=O)c1ccc(-c2ccccc2)cc1 [Fenbufen, 4-(biphenyl-4-yl)-4-oxo-butyric acid] | – | low bioavailability |
